Results on two compounds are retold here after patent US8841257B2, “Inhibitors of STAT3 and uses thereof” (Board of Regents, The University of Texas System, priority 2009, dated 2014).

The test system of assay [1] is non-small cell lung cancer cell lines. Briefly: Lung tumor cell viability assay, NSCLC cell lines. The class given is cell-based. As to conditions: 0.25-5.0 μM in DMSO; 72 h. As to the method:
Lung Tumor Cell Viability Assay: H1819, H1299 and H827 lung tumor cells were seeded in 6-well plates at a density of 6×10^4, 4×10^4 and 5×10^4 cells/well, respectively. Prodrugs were dissolved in DMSO to make a stock concentration of 500 μM. The following day the cells were treated either with DMSO alone or with 0.25 μM, 0.5 μM, 1.0 μM, 2.5 μM and 5.0 μM of the compounds from Example 1, Example 16, and Example 22. Seventy two h after treatment with the drug the cells were subjected to cell viability assay using trypan blue. […] Cells were plated and after 24 hr were treated with the compound of Example 16 in DMSO. After 72 hr, cells were counted. Note that vertical axes are different for each plot.

The test system of assay [2] is Focal Adhesion Kinase (FAK). As to the kind of experiment: Phosphorylation of Focal Adhesion Kinase Tyr861 in MDA-MB-468 cells. It counts as cell-based, human. As to conditions: 2 hr treatment. The text has this: Effect of Prodrug on the phosphorylation of Focal Adhesion Kinase (FAK) in MDA-MB-468 breast tumor cells. MDA-MB-468 cells express constitutive phosphorylation of Tyr861 of FAK (Laird, A. et al., Src Family Kinase Activity is Required For Signal Tranducer and Activator of Transcription 3 and Focal Adhesion Kinase Phosphorylation and Vascular Endothelial Growth Factor Signaling In Vivo and For Anchorage-Dependent and Independent Growth Of Human Tumor Cells, Mol Cancer Ther, 2, 461-9(2003). a unique substrate of Src upon recruitment via its SH2 domain (Calalb, M. B., et al, S. K. Focal adhesion kinase tyrosine-861 is a major site of phosphorylation by Src. Biochem Biophys Res Commun 1996, 228, 662-8 (1996.) To test for cross reactivity to the Src SH2 domain, MDA-MB-468 cell extracts were probed for phosphorylation of Tyr861 of FAK.

In assay [3] the target is T1, STAT3 (Homo sapiens, UniProt P40763). As to the kind of experiment: Inhibition of Stat3 tyrosine705 phosphorylation in MDA-MB-468 cells. The class given is cell-based. More on the design: host or cells: MDA-MB-468 breast tumor cells. As to conditions: 2 h; for inhibition of Tyr705 phosphorylation of Stat3 (potency in words): prodrug in DMSO. As to the method: Inhibition of Stat3 tyrosine705 phosphorylation in MDA-MB-468 cells. MDA-MB-468 breast tumor cells (0.4×10^6) were plated onto 35 mm culture dishes and were allowed to grow overnight. Prodrugs were prepared as 10 mM stock solutions in DMSO and aliquots were added to the culture media to give the correct final concentrations. After 2 h the cells were washed with ice cold phosphate buffered saline. Washed cells were treated with lysis buffer (50 mM Hepes, pH 7.4, 150 mM NaCl, 1.5 mM MgCl2, 1 mM EGTA, 100 mM NaF, 10 mM sodium pyrophosphate, 10% glycerol, 1% Triton X-100, 1 mM PMSF, 1 mM Na3VO4, 10 μg/mL leupeptin and 10 μg/mL aprotinin). Cell-free detergent extracts were centrifuged at 15,000 rpm in a microcentriguge for 30 min at 4° C. and the protein concentrations of the supernatants determined. Aliquots containing 12 μg of protein were separated on 8% SDS-PAGE and were transferred to PVDF filters. The filters were blocked with 5% bovine serum albumin and were probed with pStat3^Y705 antibody followed by secondary antibody, whose signal was detected with an enhanced chemiluminescence kit (ECL, Amersham, Chicago, Ill.). Filters were stripped with stripping buffer (62.5 mM Tris, pH 6.8, 2% SDS, and 0.1 M 2-mercaptoethanol) at 50° C. for 30 min. Filters were then probed with total Stat3 antibody and visualized with chemiluminescence as above.

Assay [4] concerns the target T1, STAT3. Briefly: EGF-stimulated STAT3 phosphorylation in MDA-MB-468 cells. It counts as cell-based. The arrangement: host or cells: MDA-MB-468 breast tumor cells. As to conditions: 1.5 hr prodrug, then EGF 100 ng/mL 30 min. As to the method: Effect of prodrug on the phosphorylation of STAT3, STAT5 and Akt in response to Epidermal Growth Factor stimulation. MDA-MB-468 cells were prepared as above. Prodrugs were prepared as 10 mM stock solutions in DMSO and aliquots were added to the culture media to give the correct final concentrations. After 1.5 hr EGF was added at 100 ng/mL. After 30 minutes cells were collected and lysed and proteins were separated by PAGE and transferred to three PVDF filters as above. The first filter was blocked with 5% bovine serum albumin and probed for total and phosphoStat3 as above. The second filter was probed for phosphoSer473Akt and total Akt using appropriate antibodies and similar detection procedures to those used for STAT3. The third filter was probed for phosphoTyr699 Stat5 and total STAT5 using appropriate antibodies and similar detection procedures to those used for STAT3.

Each structure is given as a SMILES string. “Also recorded” adds a separate entry of the source.

T1 sequence (P40763 whole entry): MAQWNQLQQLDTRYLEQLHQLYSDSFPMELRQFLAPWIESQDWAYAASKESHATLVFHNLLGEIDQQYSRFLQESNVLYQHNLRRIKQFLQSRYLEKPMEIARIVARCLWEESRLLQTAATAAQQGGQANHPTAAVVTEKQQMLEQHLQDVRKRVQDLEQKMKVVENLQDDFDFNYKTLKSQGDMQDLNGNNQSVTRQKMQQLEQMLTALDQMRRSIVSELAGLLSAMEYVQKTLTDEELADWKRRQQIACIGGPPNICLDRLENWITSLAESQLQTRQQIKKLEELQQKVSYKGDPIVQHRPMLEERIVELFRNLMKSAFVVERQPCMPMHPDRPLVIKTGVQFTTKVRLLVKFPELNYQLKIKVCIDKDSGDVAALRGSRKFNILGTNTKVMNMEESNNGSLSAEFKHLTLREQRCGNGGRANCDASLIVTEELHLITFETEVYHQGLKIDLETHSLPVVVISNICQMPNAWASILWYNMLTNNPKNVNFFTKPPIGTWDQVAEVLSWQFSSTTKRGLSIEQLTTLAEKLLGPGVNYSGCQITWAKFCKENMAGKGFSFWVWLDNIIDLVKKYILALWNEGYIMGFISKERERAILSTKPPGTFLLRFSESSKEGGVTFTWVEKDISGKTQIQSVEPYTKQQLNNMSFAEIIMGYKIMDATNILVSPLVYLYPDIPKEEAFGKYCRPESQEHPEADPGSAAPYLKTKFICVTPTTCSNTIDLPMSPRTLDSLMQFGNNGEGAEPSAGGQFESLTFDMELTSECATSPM

For the compound `C/C(=C\C(=O)N[C@H]1CCc2cccc3c2N(C1=O)[C@H](C(=O)N[C@H](C)CCC(N)=O)C3)c1ccc(C(F)(F)P(=O)(OCOC(=O)C(C)(C)C)OCOC(=O)C(C)(C)C)cc1` [Example 1, (2E)-3-[4-[[bis[(2,2-dimethyl-1-oxopropoxy)methoxy]phosphinyl]difluoromethyl]phenyl]-but-2-enoyl-Haic-(R)-4-aminopentamide], the “growth / viability of NSCLC cell lines” value in assay [1] is recorded as “inhibition”. Moreover, the “phosphorylation of FAK Tyr861” value in assay [2] was “no reduction; also recorded: do not inhibit”. Further, on STAT3 [3], the “concentration as low as which partial inhibition of STAT3 phosphorylation was seen” value came to 10 nM, the “concentration at which complete inhibition of STAT3 phosphorylation occurred” value came to 500 nM and the “inhibition of Tyr705 phosphorylation of Stat3 (potency in words)” value is on record as “very potent inhibitors”. Also, the “EGF-induced increase in Stat3 phosphorylation” value at STAT3 [4] is given as “effective at inhibiting”.
As for `CCCC[C@H](NC(=O)/C=C(\C)c1ccc(C(F)(F)P(=O)(OCOC(=O)C(C)(C)C)OCOC(=O)C(C)(C)C)cc1)C(=O)N1C[C@H]2CC2[C@H]1C(=O)N[C@@H](CCC(N)=O)[C@@H](C)OCc1ccccc1` (stereo partly drawn) [Example 16, (2E)-3-[4-[[bis[(2,2-dimethyl-1-oxopropoxy)methoxy]phosphinyl]difluoromethyl]phenyl]-but-2-enoyl-norleucinyl-(2S,3R,4S)-methanoprolinyl-(4S,5R)-4-amino-5-benzyloxyhexamide], the “growth / viability of NSCLC cell lines” value in assay [1] was “inhibition of growth”. In assay [2], the “phosphorylation of FAK Tyr861” value is listed as “no reduction; also recorded: do not inhibit”. Besides, at STAT3 [3], the “concentration as low as which partial inhibition of STAT3 phosphorylation was seen” value worked out at 10 nM, the “concentration at which complete inhibition of STAT3 phosphorylation occurred” value was 500 nM and the “inhibition of Tyr705 phosphorylation of Stat3 (potency in words)” value is “very potent inhibitors”. On STAT3 [4], the “EGF-induced increase in Stat3 phosphorylation” value is “effective at inhibiting”.
